We go through seven compounds from article PMC10424179, “Disrupting Kaposi’s Sarcoma-Associated Herpesvirus (KSHV) Latent Replication with a Small Molecule Inhibitor” (Journal of Medicinal Chemistry, 2023).

In brackets after ≈: the same amount, converted by molar mass. Where only a bound is given, the exact number is not on record here.

One data set in a line: Kinetic solubility. Type of data set: physicochemical. The conditions noted are these: PBS with 1% DMSO; 1% DMSO in PBS, pH 7.4. As for the experimental part:
(§1) The next step was an in vitro ADMET profiling of the best seven compounds so far: 9, 11, 14, 19, 20, 21, and 27. The compounds were tested for their kinetic solubility (1% DMSO in PBS, pH 7.4), lipophilicity (chromatographic Log D7.4 value), cellular permeability (using Caco-2 cells), and metabolic stability (using mouse and human liver S9 fractions) (see Table 3).
The desired compounds were sequentially diluted in DMSO in a 96-well plate. 1.5 µL of each well were transferred into another 96-well plate and mixed with 148.5 µL of PBS. Plates were shaken for 5 min at 600 rpm at room temperature (r.t.), and the absorbance at 620 nm was measured. Absorbance values were normalized by blank subtraction and plotted using GraphPad Prism 8.4.2 (GraphPad Software, San Diego, CA, USA). Solubility (S) was determined based on the First X value of AUC function using a threshold of 0.005. […]

Another data set can be described thus: Caco-2 cell permeability. The class given is in vitro ADME. The conditions noted are these: human, pH 7.4, Caco-2 monolayer, apical to basolateral. As for the experimental part:
as §1
MTT Assay: Viability of HEK293 cells ~48 hours after treatment […]
Fig S4: MTT assay for compounds 11, 14, 19, 20 and 21 using HEK293 cells. Values are means of […]
Permeability of the compounds was assessed using Caco2 monolayers grown on Transwell® (3460 Costar, Corning). In brief, cells were seeded 60.000 cells/well in 12-well Transwell plates in DMEM medium supplemented with 10% FCS and 1% NEAA. Cells were grown for 7 to 9 days with medium replacement every other day until they reached a tight monolayer. Tightness was defined as transepithelial resistance (TEER) values >300 Ω/cm² (measured using an EVOM Volt-Ohmmeter, World Precision Instruments). At the day of permeability as say, the compound stock solutions in DMSO were diluted to 10µM in Krebs -Ringer-buffer (KRB, pH 7.4). Cells treated with KRB only served as control. Monolayer was washed two times with prewarmed KRB and incubated with 500 µl sample on the apical compartment. Samples from the basolateral side were drawn at t = 0, 15, 30, 60, 120, 180 and 300 min and replaced with fresh buffer. The plates were incubated for 5 h in a cell culture incubator with lateral shaking (200 rpm). TEER values were measured again at the end of the permeability test. Compound concentration was determined with HPLC-ESI-MS/MS in SRM mode and calculated for the cumulative transport. Values are means of three replicates.
For orientation: Caco-2 monolayers are a common model of the intestinal barrier.

A short description of the next data set: Chromatographic LogD7.4. Type of data set: physicochemical. The settings on record: reversed-phase HPLC, NUCLEODUR C18 Pyramid column; pH 7.4, HPLC-MS based; read-out: Chrom. LogD7.4. As for the experimental part:
(§2) The next step was an in vitro ADMET profiling of the best seven compounds so far: 9, 11, 14, 19, 20, 21, and 27. The compounds were tested for their kinetic solubility (1% DMSO in PBS, pH 7.4), lipophilicity (chromatographic Log D7.4 value), cellular permeability (using Caco-2 cells), and metabolic stability (using mouse and human liver S9 fractions) (see Table 3). […]
LogD7.4 was analyzed using an HPLC−MS based method. The retention time of 12 compounds with known LogD7.4 was determined and plotted toward their LogD7.4. Linear regression was used to determine the LogD7.4 of unknown compounds. Analysis was performed using a Dionex Ultimate 3000 HPLC system coupled to a TSQ Quantum Access MAX (Thermo Fisher, Dreieich, Germany) with the following conditions: EC150/2 NUCLEODUR C18 Pyramid column, 5 μM (Macherey Nagel, Düren, Germany); eluent A: 50 mM NH4OAc pH 7.4, eluent B: acetonitrile, and flow: 0.6 mL/min. The gradient was set to 0−100% B from 0 to 2.5 min, […]
are means of two replicates. […]

In data set [1] the target is T1, oligomerization-deficient mutant of a LANA C-terminal protein fragment (aa 1008–1146) (Human herpesvirus 8 (Kaposi's sarcoma-associated herpesvirus), UniProt Q76SB0).
T1 sequence (Q76SB0 1008-1146): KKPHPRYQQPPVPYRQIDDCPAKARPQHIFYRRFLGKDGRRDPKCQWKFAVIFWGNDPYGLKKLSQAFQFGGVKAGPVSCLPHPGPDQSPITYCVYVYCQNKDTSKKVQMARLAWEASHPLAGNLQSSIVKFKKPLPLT
As to the kind of experiment: Microscale thermophoresis (MST) binding assay. Further details: species or system Kaposi's sarcoma-associated herpesvirus (KSHV). The conditions noted are these: read-out: KD value (MST); LANA aa 1008–1146 mutant; means of at least three replicates. The text has this:
(§3) In these assays, an oligomerization-deficient mutant of a LANA C-terminal protein fragment (aa 1008–1146) and an oligonucleotide representing LANA-binding site (LBS) 1 were used, which are convenient to use and handle for the described biophysical methods, while maintaining the essential DNA-binding interface.[25]
Equation y = A2 + (A1-A2)/(1 + (x/x0)^p)
1.3 Microscale Thermophoresis (MST) Assay
Microscale Thermophoresis Assay was done as mentioned in a previous publication. 2
On the technique in general: In MST a laser heats a spot of the sample, and binding alters the fluorescence response.

Data set [2] can be described thus: Metabolic stability in human liver S9 fraction. Type of data set: in vitro ADME. The settings on record: human liver S9, 1 μM compound; for microsomal CLint at 1 µM: read-out: MetStab Human Liver S9 Clint; for half-life at 1 µM: read-out: MetStab Human Liver S9 t1/2. As for the experimental part: as §2
(§4) 1.7 Metabolic Stability in Liver S9 Fractions
(§5) For the evaluation of combined phase I and phase II metabolic stability, the compound (1 μM) was incubated with 1 mg/mL pooled mouse liver S9 fraction (Xenotech, Kansas City, USA) or human liver S9 fraction (Corning, USA), 2 mM NADPH, 1 mM UDPGA, 10 mM MgCl 2, 5 mM GSH and 0.1 mM PAPS at 37 °C for 240 min. The metabolic stability of testosterone, verapamil and ketoconazole were determined in parallel to confirm the enzymatic activity of mouse S9 fractions, for human S9 testosterone, diclofenac and propranolol were used. The incubation was stopped after defined time points by precipitation of aliquots of S9 enzymes with 2 volumes of cold acetonitrile containing internal standard (150 nM diphenhydramine). Samples were stored on ice until the end of the incubation and precipitated protein was removed by centrifugation (15 min, 4 °C, 4,000 g). Concentration of the remaining test compound at the different time points was analyzed by HPLC-MS/MS (TSQ Quantum Access MAX, Thermo Fisher, Dreieich, Germany) and used to determine half -life (t1/2). Values are means of three

Data set [3] concerns the target LANA–DNA interaction (oligomerization-deficient LANA DBD aa 1008–1146 mutant / LBS1) (Human herpesvirus 8 (Kaposi's sarcoma-associated herpesvirus), UniProt Q76SB0). As to the kind of experiment: Electrophoretic mobility shift assay (EMSA), LANA DBD mutant with LBS1 oligonucleotide. Type of data set: biochemical, Kaposi's sarcoma-associated herpesvirus (KSHV). The settings on record: compound at 250 μM; LBS1 oligonucleotide; LANA aa 1008–1146 mutant. As for the experimental part: as §3
Equation y = A2 + (A1-A2)/(1 + (x/x0)^p) […]
1.4 Electrophoretic Mobility Shift Assay (EMSA)
The EMSA was carried out with slight modific ations as described previously 2 based on the assay in Hellert et al. (2013). 3 His-tagged oligomerization-deficient LANA DBD (aa1008-1146) mutant protein or LANA DBD (aa934-1162) wild type protein (200 nM final) was incubated with a 5´-Dy682-labeled double stranded DNA probe (IBA Lifesciences) (20 nM final) for 30 minutes at RT in the dark. The reaction buffer consisted of 30 mM Tris HCl pH 7.5, 50 mM KCl, 10 mM MgCl2, 1 mM DTT, 1 mM EDTA, 10% glycerol, 0.25% Tween20, 0.5 mg/mL BSA and 0.05 mg/mL poly(dI-dC). […]
dark. 10 µL of the reaction was run on a pre -run native 5% acrylamide gel for 45 minutes at 100V with tris-borate-EDTA buffer. Images of the gels were acquired and analysed with the Odyssey (Licor) using the Image Studio software.
Fig S2: Gels of EMSA experiments at 250 μM for all compounds (A) and dose-dependent curves for compound 20 using LANA DBD mutant (B) and LANA wildtype (C) as well as LBS1. Values are means […]
Gleichung y = A2 + (A1-A2)/(1 + (x/x0)^p) […]

Data set [4] in a line: Metabolic stability in mouse liver S9 fraction. The conditions noted are these: pooled liver S9 fraction, mouse liver S9, 1 μM compound; for microsomal CLint at 1 µM: read-out: MetStab Mouse Liver S9 Clint; for half-life at 1 µM: read-out: MetStab Mouse Liver S9 t1/2. The class given is in vitro ADME. As for the experimental part:
as §2, §4, §5

The target of a further data set is LANA. Further details: method as in PMID 30888817. The conditions noted are these: cited from earlier work.

A word on the solubility (kinetic): it is the concentration staying in solution when a stock, usually in DMSO, is diluted into the medium. The Papp A→B is how fast a substance crosses the layer from the apical side. As a reminder, the Kd is the concentration at which binding is half-saturated. `Cc1cc(-c2ccccc2O)ncc1-n1cc(-c2ccc(C(=O)O)cc2)nn1` [Compound 21] displayed a kinetic solubility at 5 min in “Kinetic solubility” of 137 ± 20 µM (≈ 51 µg/mL). The Papp A→B at 5 h, 10 µM in the data set “Caco-2 cell permeability” was found to be 8.8 ± 1.1 ×10⁻⁶ cm/s. The chromatographic logD in “Chromatographic LogD7.4” was determined as 0.62. Also, the Kd in data set [1] was found to be 18.8 ± 2.2 µM. In data set [2], the microsomal CLint at 1 µM was less than 5.8 µL/min/mg and the half-life at 1 µM is greater than 2 h. Moreover, the “Inhibition (EMSA, LBS1) @250 μM” value in data set [3] turned out to be 94%. Besides, in data set [4], the microsomal CLint at 1 µM was less than 5.8 µL/min/mg and the half-life at 1 µM is greater than 2 h.
Take `COc1ccc(-c2cc(C)c(-n3cc(-c4ccc(C(=O)O)cc4)nn3)cn2)cc1` [Compound 19]: the solubility (kinetic) at 5 min in “Kinetic solubility” was greater than 200 µM. The compound further gave a Papp A→B at 5 h, 10 µM in “Caco-2 cell permeability” of 16.5 ± 4.7 ×10⁻⁶ cm/s. Moreover, the chromatographic logD in “Chromatographic LogD7.4” turned out to be 0.46. In data set [1], the Kd was 5.4 ± 1.8 µM. In addition, in data set [2], the microsomal CLint at 1 µM was less than 5.8 µL/min/mg and the half-life at 1 µM was greater than 2 h. Also, in data set [3], the “Inhibition (EMSA, LBS1) @250 μM” value came to 69%. In addition, in data set [4], the microsomal CLint at 1 µM was less than 5.8 µL/min/mg and the half-life at 1 µM was greater than 2 h.
In “Kinetic solubility”, `COc1ncc(C)cc1-c1cc(C)c(-n2cc(-c3ccc(C(=O)O)cc3)nn2)cn1` [Compound 11] showed a solubility (kinetic) at 5 min greater than 200 µM. In “Caco-2 cell permeability”, the Papp A→B at 5 h, 10 µM was found to be 9.6 ± 1.4 ×10⁻⁶ cm/s. Moreover, in “Chromatographic LogD7.4”, the chromatographic logD is 0.42. Besides, in data set [1], the dissociation constant (Kd) was determined as 18.8 ± 2.1 µM. Further, in data set [2], the microsomal CLint at 1 µM was less than 5.8 µL/min/mg and the half-life at 1 µM was greater than 2 h. For the same compound, in data set [3], the “Inhibition (EMSA, LBS1) @250 μM” value came out at 96%. In data set [4], the microsomal CLint at 1 µM was less than 5.8 µL/min/mg and the half-life at 1 µM was greater than 2 h.
With `COc1cncc(-c2cc(C)c(-n3cc(-c4ccc(C(=O)O)cc4)nn3)cn2)c1` [Compound 9], in “Kinetic solubility”, the solubility (kinetic) at 5 min came out at 139 ± 18 µM (≈ 53.8 µg/mL). This compound also yielded a Papp A→B at 5 h, 10 µM in the data set “Caco-2 cell permeability” of 2 ± 0.5 ×10⁻⁶ cm/s. In “Chromatographic LogD7.4”, the chromatographic logD was -0.36. The Kd in data set [1] was determined as 11 ± 1.9 µM. For the same compound, the microsomal CLint at 1 µM in data set [2] and in data set [4] was less than 5.8 µL/min/mg throughout. For the same compound, the half-life at 1 µM in data set [2] and in data set [4] was greater than 2 h in each case. In data set [3], the “Inhibition (EMSA, LBS1) @250 μM” value is 97%.
`O=C(O)c1ccc(-c2cn(-c3cccnc3)nn2)cc1` [hit I]: the Kd at LANA is 23 µM.
As for `Cc1cc(-c2ccc(C(=O)O)cc2)ncc1-n1cc(-c2ccc(C(=O)O)cc2)nn1` [Compound 27], the solubility (kinetic) at 5 min in “Kinetic solubility” is greater than 200 µM. The compound further showed an apical-to-basolateral permeability (Papp A→B) at 5 h, 10 µM in the data set “Caco-2 cell permeability” of 0.5 ± 0.2 ×10⁻⁶ cm/s. Moreover, in “Chromatographic LogD7.4”, the chromatographic logD is -1.92. Further, the Kd in data set [1] stood at 11.4 ± 3.6 µM. Besides, in data set [2], the microsomal CLint at 1 µM is less than 5.8 µL/min/mg and the half-life at 1 µM was greater than 2 h. Moreover, the “Inhibition (EMSA, LBS1) @250 μM” value in data set [3] amounted to 98%. In data set [4], the microsomal CLint at 1 µM is less than 5.8 µL/min/mg and the half-life at 1 µM is greater than 2 h.
The compound `Cc1cc(-c2ccccc2Cl)ncc1-n1cc(-c2ccc(C(=O)O)cc2)nn1` [Compound 14] gave a solubility (kinetic) at 5 min in the data set “Kinetic solubility” greater than 200 µM. This compound also displayed a Papp A→B at 5 h, 10 µM in “Caco-2 cell permeability” of 14.2 ± 1.8 ×10⁻⁶ cm/s. Also, in the data set “Chromatographic LogD7.4”, the chromatographic logD is 0.67. For the same compound, in data set [1], the Kd came to 4.2 ± 0.6 µM. In addition, in data set [2], the microsomal CLint at 1 µM is less than 5.8 µL/min/mg and the half-life at 1 µM is greater than 2 h. The “Inhibition (EMSA, LBS1) @250 μM” value in data set [3] is reported as 92%. Besides, in data set [4], the microsomal CLint at 1 µM was less than 5.8 µL/min/mg and the half-life at 1 µM was greater than 2 h.
